Results from patent US10626092B2, “Polymorphic forms of 3-[(2-butyl-1-(2-diethylamino-ethyl)-1H-benzoimidazol-5-yl]-N-hydroxy-acrylamide and uses thereof” (MEI PHARMA, INC., priority 2016, dated 2020).
Structures can show the parent of a compound that is named as a salt.

Tests used:
[1] = Physical stability under accelerated aging conditions (40° C./70% RH), physical form re-determined by HT-XRPD; assay type: physicochemical
Description: Solids were analyzed for their physical stability under accelerated aging conditions (40° C./70% RH) for 48 hours. After the exposure, the physical form was determined again by HT-XRPD analysis. The physico-chemical characterization of the forms was done by TGMS analysis to determine the solvation state of the form and thermal events and by DSC analysis to confirm the thermal events observed in the SDTA signal of the TGA. (See Examples for details.)
Suspensions of 3-[2-butyl-1-(2-diethylamino-ethyl)-1H-benzoimidazol-5-yl]-N-hydroxy-acrylamide dihydrochloride monohydrate (Form 1) and 2.5 hydrate (Form 3) were prepared in 12 process relevant solvent systems. The suspensions were cycled between 5° C. and 50° C. followed by aging at 25° C. for 72 hours. […] Upon completion of the incubation time, the solids were collected, dried under ambient conditions and dried under deep vacuum before being analyzed by HT-XRPD. All the measured solids were exposed to accelerated ageing conditions (2 days at 40° C./70% RH) followed by re-analysis by HT-XRPD.
Long-term slurry conversion experiments were carried out by preparing suspensions of 3-[2-butyl-1-(2-diethylamino-ethyl)-1H-benzoimidazol-5-yl]-N-hydroxy-acrylamide dihydrochloride 2.5 hydrate (Form 3) and monohydrate (Form 1) in 12 different solvents and solvent mixtures. Approximately 30 mg of the specific form was dosed in a standard HPLC vial and aliquots of 100 μL of solvent until a suspension was formed. The suspensions were stirred for 2 weeks at room temperature and for 1 week at 50° C. The solids were isolated from the mother liquor and analyzed by HT-XRPD after mild drying under ambient conditions (ambient) and after thorough drying under vacuum (vacuum). All the solids were exposed to accelerated ageing conditions (2 days at 40° C./70% RH) and re-analyzed by HT-XRPD.
The competitive slurry experiments were performed in ethanol/water mixtures and methanol/water mixtures within a water activity range of 0-0.2. Approximately 50 mg of each pracinostat dihydrochloride solid form 2.5 hydrate and monohydrate were solid dosed in 1.8 mL HPLC vials. Aliquots of 100 μL of the different water mixtures were added until about half of the amount of solid was in solution. Subsequently, the vials were stirred for one week at 5° C., 21° C. and 50° C. Upon completion of the equilibration time, the solids were separated from the liquids by centrifugation. The solids were dried under ambient conditions (ambient) and dried under vacuum (vacuum) before HT-XRPD analysis. All solid samples were exposed to accelerated gaining conditions (40° C. and 70% RH) for two days (AAC). The water content in the liquid phase was determined Karl Fischer analysis.

[2] = Moisture sorption study (DVS analysis); assay type: physicochemical
Description: A moisture sorption study was performed to investigate the physical stability of 3-[2-butyl-1-(2-diethylamino-ethyl)-1H-benzoimidazol-5-yl]-N-hydroxy-acrylamide dihydrochloride 2.5 hydrate upon exposure to several relative humidity profiles. HT-XRPD analyses were performed on the solid material obtained after the DVS analyses. The analytical method is described herein.
Differences in hygroscopicity (moisture uptake) of the various forms of a solid material provided a measure of their relative stability at increasing relative humidity. Moisture sorption isotherms of small samples were obtained using a DVS-1 system from Surface Measurement Systems (London, UK); this instrument is suitable for use with as little as a few milligrams of sample, with an accuracy of 0.1 μg. Several humidity profile were applied as described in each individual experiment. Steps consisted of 10% RH. Weight equilibration per step was set with a minimum holding time of 1 hour (10% relative humidity step). At the end of the DVS experiments, the recovered solid material was measured by HT-XRPD.

[3] = cycles 45-95-0-45% RH, two cycles
[4] = second DVS: 45% to 95% RH, held at 95% RH for 10 hours

## CCCCc1nc2cc(/C=C/C(=O)NO)ccc2n1CCN(CC)CC [Form 1, 3-[2-butyl-1-(2-diethylamino-ethyl)-1H-benzoimidazol-5-yl]-N-hydroxy-acrylamide dihydrochloride monohydrate]
[1]; 2 days at 40° C./70% RH
  solid form after accelerated aging conditions: converted to the 2.5 hydrate Form 3
[1]; physical stability under accelerated aging conditions (40° C./70% RH) for 48 hours, dihydrochloride monohydrate
  Stability: Unstable
[2]; 45-95-0% RH with aging for 5 hours at 0% RH, HT-XRPD
  solid form recovered after DVS: 2.5 hydrate (Form 3) with a small contamination of the hemihydrate (Form 10)
[2]; [3]
  water uptake between 85-95% RH: 17%
  weight loss during desorption between 15-0% RH: 10%
  weight loss during desorption between 95-75% RH: 7%
[2]; first cycle of 45-95-0-45% RH
  water uptake at 75% RH: 18%
[2]; [4]
  water uptake between 85-95% RH: 18%
  weight loss after aging at 95% RH for 2 hours: about 12%
